# BindingDB's records for doi:10.1021/jm030528p (Encysive Pharmaceuticals, 2004)
# Molecular target: Endothelin-1 receptor (Homo sapiens) (UniProt P25101)
# Assay: Displacement of [125I]ET-1 from Endothelin A receptor
# Sequence of Endothelin-1 receptor (Homo sapiens) (P25101 whole entry, looked up): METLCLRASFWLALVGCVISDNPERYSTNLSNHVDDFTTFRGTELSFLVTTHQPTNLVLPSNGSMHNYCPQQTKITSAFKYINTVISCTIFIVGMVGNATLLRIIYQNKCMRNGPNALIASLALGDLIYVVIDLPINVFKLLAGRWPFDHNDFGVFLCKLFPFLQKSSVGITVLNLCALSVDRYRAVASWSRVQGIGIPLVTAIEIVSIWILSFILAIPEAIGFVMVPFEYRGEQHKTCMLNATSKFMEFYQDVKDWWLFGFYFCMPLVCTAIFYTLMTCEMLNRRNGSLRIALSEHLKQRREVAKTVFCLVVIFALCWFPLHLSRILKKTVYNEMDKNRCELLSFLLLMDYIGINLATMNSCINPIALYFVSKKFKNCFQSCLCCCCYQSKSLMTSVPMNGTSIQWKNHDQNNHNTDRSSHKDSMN
smiles,measurement,value
"Cc1cc(C)c(NC(=O)c2sccc2S(=O)(=O)Nc2onc(C)c2Cl)c(C(C)N=O)c1 (stereo unspecified) [3-(4-Chloro-3-methyl-isoxazol-5-ylsulfamoyl)-thiophene-2-carboxylic acid [2-(1-hydroxyimino-ethyl)-4,6-dimethyl-phenyl]-amide]",IC50,0.02 nM
